Test results from US12350272B2, “Pyridopyrimidinone derivatives for use as AXL inhibitors” (OSCOTEC INC., priority 2018, dated 2025).
Structures can show the parent of a compound that is named as a salt. Where two headings read alike, the source gives them in different places.

Legend:
Truncated human Axl = Truncated human Axl (Homo sapiens, UniProt P30530); experiment: Kinase inhibition assay (inhibition of enzymatic Axl kinase activity); format: biochemical
Protocol: Compounds of Formula (I) as obtained above were assayed to measure their capacity to inhibit Axl kinase. Axl belongs to the recently identified TYRO-3, Axl, MERTK (TAM) receptor tyrosine kinase (RTK) family. […] Upon GAS6 binding, Axl homodimerizes and subsequently induces several downstream signaling pathways involved in cell proliferation, migration, invasion, anti-apoptosis, angiogenesis, metastasis, and therapeutic resistance. Upregulation of Axl has been reported in a wide variety of cancer cell lines as well as in cancer specimens from patients with breast cancer, acute leukemia, colorectal cancer, lung cancer, melanoma, ovarian cancer, or prostate cancer, among others.
Compounds of Formula (I) as obtained above were initially diluted to […] in 100% DMSO (CALBIOCHEM™) for storage and made into kinase buffer solution to create a compound concentration ranging from 1 uM and 10 uM. Serial dilutions of the compounds were dispensed into a 96-well plate (GREINER BIOSCIENCES™) at 6 μL each. Truncated human Axl (CARNA BIOSCIENCES™) were diluted in kinase buffer and added to the compound solutions and pre-incubated for 30 minutes at room temperature. […] The reaction mixture was incubated for 1 hour. Following the incubation, the stop solution made with EDTA, water, and Lance detection buffer ([…]™) were added (12 μL each) to stop phosphorylation.

JAK2 = JAK2 (Homo sapiens (Human), UniProt O60674); experiment: Biochemical inhibition of JAK2; details: Table 2, range of IC50 value
MDA-MB-231 cells = experiment: Cell viability assay (ATPLite), MDA-MB-231; format: cell-based, human; details: for GI50: Homo sapiens, MDA-MB-231, 72 h, 72 hour incubation
Source text: (§1) Axl is a member of the TAM (TYRO3-Axl-MER) family of receptor tyrosine kinases, which, when activated, can increase tumor cell survival, proliferation, migration and invasion, angiogenesis, and tumor-host interactions. Upon GAS6 binding to Axl, Axl subsequently activates the signaling pathways downstream such as phosphoinositide 3-kinase (PI3K), RAt sarcoma (RAS), and extracellular signal regulated kinase (ERK).
(§2) This cell line was maintained with an Roswell Park Memorial Institute (RPMI) medium (HYCLONE™) containing 10% bovine calf serum (BCS; HYCLONE™) supplemented iron. The cells were seeded at 2×10^4 cells in 96-well culture plates, and serially diluted compounds were then added. After a 72 hour incubation period at 37° C., cell viability was measured using the ATPLite 1 step assay (PERKIN-ELMER™) that is based on the quantification of ATP from viable cells.

Hs578T cells = experiment: Cell viability assay (ATPLite), Hs578T; format: cell-based, human; details: Homo sapiens, Hs-578T, 72 h, 72 hour incubation
Source text: as §1, §2

[1] = Table 2, range of IC50 value, read-out: Axl

Chain of JAK2 (O60674 whole entry, species assumed): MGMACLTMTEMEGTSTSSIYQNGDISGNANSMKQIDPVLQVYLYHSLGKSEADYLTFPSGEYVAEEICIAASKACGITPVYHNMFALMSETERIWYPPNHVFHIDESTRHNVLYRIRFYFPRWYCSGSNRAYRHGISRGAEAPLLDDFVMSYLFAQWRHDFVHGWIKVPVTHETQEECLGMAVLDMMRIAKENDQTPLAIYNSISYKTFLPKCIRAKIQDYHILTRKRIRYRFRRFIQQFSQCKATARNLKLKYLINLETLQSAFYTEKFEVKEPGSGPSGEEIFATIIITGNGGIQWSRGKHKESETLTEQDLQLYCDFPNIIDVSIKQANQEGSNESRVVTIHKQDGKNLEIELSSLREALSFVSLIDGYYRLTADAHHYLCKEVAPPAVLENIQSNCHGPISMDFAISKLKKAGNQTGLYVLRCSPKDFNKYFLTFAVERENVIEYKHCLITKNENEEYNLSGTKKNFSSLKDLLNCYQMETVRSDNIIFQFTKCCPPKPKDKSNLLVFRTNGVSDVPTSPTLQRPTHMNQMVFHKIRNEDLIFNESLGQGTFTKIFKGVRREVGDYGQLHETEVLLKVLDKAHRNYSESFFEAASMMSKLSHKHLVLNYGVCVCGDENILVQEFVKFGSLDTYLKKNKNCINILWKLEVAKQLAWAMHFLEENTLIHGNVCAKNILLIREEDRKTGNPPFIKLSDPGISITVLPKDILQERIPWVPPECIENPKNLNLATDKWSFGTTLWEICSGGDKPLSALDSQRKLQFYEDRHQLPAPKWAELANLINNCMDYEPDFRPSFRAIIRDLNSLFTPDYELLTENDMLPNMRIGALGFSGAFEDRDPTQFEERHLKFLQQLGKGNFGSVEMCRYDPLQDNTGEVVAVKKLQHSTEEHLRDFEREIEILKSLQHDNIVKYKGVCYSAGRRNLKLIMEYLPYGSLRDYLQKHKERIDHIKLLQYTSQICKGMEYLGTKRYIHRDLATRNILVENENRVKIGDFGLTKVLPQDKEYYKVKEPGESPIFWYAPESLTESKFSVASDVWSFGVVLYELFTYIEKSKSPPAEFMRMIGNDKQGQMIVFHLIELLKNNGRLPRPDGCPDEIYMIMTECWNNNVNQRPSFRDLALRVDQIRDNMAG
Chain of Truncated human Axl (P30530 26-894 limits assumed): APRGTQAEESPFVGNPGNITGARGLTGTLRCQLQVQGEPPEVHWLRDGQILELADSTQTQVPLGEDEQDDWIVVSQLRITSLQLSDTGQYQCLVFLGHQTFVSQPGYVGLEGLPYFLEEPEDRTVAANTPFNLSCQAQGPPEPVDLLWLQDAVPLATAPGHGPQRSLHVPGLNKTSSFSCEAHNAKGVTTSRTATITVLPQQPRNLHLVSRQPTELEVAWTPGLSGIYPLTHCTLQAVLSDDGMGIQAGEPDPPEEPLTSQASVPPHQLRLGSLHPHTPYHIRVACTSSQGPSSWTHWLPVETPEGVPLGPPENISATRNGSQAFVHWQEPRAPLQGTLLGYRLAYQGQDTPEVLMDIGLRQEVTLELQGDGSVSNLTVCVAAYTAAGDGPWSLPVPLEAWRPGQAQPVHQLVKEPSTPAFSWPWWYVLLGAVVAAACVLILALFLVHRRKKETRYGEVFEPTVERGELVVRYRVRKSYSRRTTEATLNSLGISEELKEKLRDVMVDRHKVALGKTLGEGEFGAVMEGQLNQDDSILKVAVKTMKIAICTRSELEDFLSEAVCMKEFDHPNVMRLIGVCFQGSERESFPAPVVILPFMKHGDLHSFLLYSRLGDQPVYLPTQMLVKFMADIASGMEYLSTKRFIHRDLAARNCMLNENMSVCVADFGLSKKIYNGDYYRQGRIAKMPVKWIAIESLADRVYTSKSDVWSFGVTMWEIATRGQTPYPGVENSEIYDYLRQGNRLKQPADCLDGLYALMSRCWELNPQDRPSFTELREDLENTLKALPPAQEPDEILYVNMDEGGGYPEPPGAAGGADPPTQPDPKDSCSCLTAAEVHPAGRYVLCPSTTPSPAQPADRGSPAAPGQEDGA

Row | Compound | IC50 (Truncated human Axl; Table 1, read-out: Axl (IC50)) [nM] | also measured
1 | CN1CCC(Nc2nc(Nc3ccc(Oc4ccccc4)cc3)c3c(=O)[nH]cc(Br)c3n2)CC1 [Compound 222, 8-bromo-2-((1-methylpiperidin-4-yl)amino)-4-((4-phenoxyphenyl)amino)pyrido[4,3-d]pyrimidin-5(6H)-one] |  | IC50 (JAK2): 101 to 1000 nM
2 | CN1CCC(Nc2nc(Nc3ccc(OCC4CCCCC4)cc3)c3c(=O)[nH]cc(Br)c3n2)CC1 [Compound 224, 8-bromo-4-((4-(cyclohexylmethoxy)phenyl)amino)-2-((1-methylpiperidin-4-yl)amino)pyrido[4,3-d]pyrimidin-5(6H)-one] | 101 to 1000 | 
3 | Cc1ccc(Oc2ccc(Nc3nc(NC4CCN(C)CC4)nc4c(Br)c[nH]c(=O)c34)cc2)cc1 [Compound 225, 8-bromo-2-((1-methylpiperidin-4-yl)amino)-4-((4-(p-tolyloxy)phenyl)amino)pyrido[4,3-d]pyrimidin-5(6H)-one] | 11 to 100 | IC50 (Truncated human Axl; [1]): 11 to 100 nM; IC50 (JAK2): 1000 to 10000 nM
4 | CN1CCC(Nc2nc(Nc3ccc(OC4CCCCC4)cc3)c3c(=O)[nH]cc(Cl)c3n2)CC1 [Compound 229, 8-chloro-4-((4-(cyclohexyloxy)phenyl)amino)-2-((1-methylpiperidin-4-yl)amino)pyrido[4,3-d]pyrimidin-5(6H)-one] | 101 to 1000 | 
5 | CN1CCC(Nc2nc(Nc3ccc(Oc4ccc(F)cc4)cc3)c3c(=O)[nH]cc(Br)c3n2)CC1 [Compound 232, 8-bromo-4-((4-(4-fluorophenoxy)phenyl)amino)-2-((1-methylpiperidin-4-yl)amino)pyrido[4,3-d]pyrimidin-5(6H)-one hydrochloride] | 11 to 100 | 
6 | CN1CCC(Nc2nc(Nc3ccc(OCc4ccccc4)cc3)c3c(=O)[nH]cc(Br)c3n2)CC1 [Compound 234, 4-((4-(benzyloxy)phenyl)amino)-8-bromo-2-((1-methylpiperidin-4-yl)amino)pyrido[4,3-d]pyrimidin-5(6H)-one hydrochloride] | 101 to 1000 | 
7 | CC(C)c1ccc(Oc2ccc(Nc3nc(NC4CCN(C)CC4)nc4c(Br)c[nH]c(=O)c34)cc2)cc1 [Compound 236, 8-bromo-4-((4-(4-isopropylphenoxy)phenyl)amino)-2-((1-methylpiperidin-4-yl)amino)pyrido[4,3-d]pyrimidin-5(6H)-one hydrochloride] | 11 to 100 | 
8 | CN1CCC(Nc2nc(Nc3ccc(OC4CCCC4)cc3)c3c(=O)[nH]cc(Br)c3n2)CC1.Cl [Compound 237, 8-bromo-4-((4-(cyclopentyloxy)phenyl)amino)-2-((1-methylpiperidin-4-yl)amino)pyrido[4,3-d]pyrimidin-5(6H)-one hydrochloride] | 101 to 1000 | GI50 (MDA-MB-231 cells): 1100 to 3000 nM; inhibition level in Axl-harboring breast cancer cell lines (MDA-MB-231 cells; compared with references ASP2215 and R428, MDA-MB-231 and Hs578T): greater than those exhibited by reference ASP2215 and R428; GI50 (Hs578T cells): 100 to 1000 nM
9 | Cc1ccccc1Oc1ccc(Nc2nc(NC3CCN(C)CC3)nc3c(Br)c[nH]c(=O)c23)cc1 [Compound 239, 8-bromo-2-((1-methylpiperidin-4-yl)amino)-4-((4-(o-tolyloxy)phenyl)amino)pyrido[4,3-d]pyrimidin-5(6H)-one hydrochloride] | 11 to 100 | 
10 | CN1CCC(Nc2nc(Nc3ccc(Oc4ccc(Cl)cc4)cc3)c3c(=O)[nH]cc(Br)c3n2)CC1 [Compound 242, 8-bromo-4-((4-(4-chlorophenoxy)phenyl)amino)-2-((1-methylpiperidin-4-yl)amino)pyrido[4,3-d]pyrimidin-5(6H)-one hydrochloride] | 11 to 100 | 
11 | Cc1cc(Nc2nc(NC3CCN(C)CC3)nc3c(Br)c[nH]c(=O)c23)ccc1Oc1cccc(F)c1 [Compound 244, 8-bromo-4-((4-(3-fluorophenoxy)-3-methylphenyl)amino)-2-((1-methylpiperidin-4-yl)amino)pyrido[4,3-d]pyrimidin-5(6H)-one hydrochloride] | 11 to 100 | 
12 | CN1CCC(Nc2nc(Nc3ccc(Oc4ccccc4)c(F)c3)c3c(=O)[nH]cc(Br)c3n2)CC1 [Compound 245, 8-bromo-4-((3-fluoro-4-phenoxyphenyl)amino)-2-((1-methylpiperidin-4-yl)amino)pyrido[4,3-d]pyrimidin-5(6H)-one hydrochloride] | 11 to 100 | 
13 | CN1CCC(Nc2nc(Nc3ccc(Oc4cccc(F)c4)c(F)c3)c3c(=O)[nH]cc(Br)c3n2)CC1 [Compound 247, 8-bromo-4-((3-fluoro-4-(3-fluorophenoxy)phenyl)amino)-2-((1-methylpiperidin-4-yl)amino)pyrido[4,3-d]pyrimidin-5(6H)-one hydrochloride] | 11 to 100 | 
14 | CCN1CCC(Nc2nc(Nc3ccc(Oc4ccccc4)cc3)c3c(=O)[nH]cc(Br)c3n2)CC1 [Compound 249, 8-bromo-2-(1-ethylpiperidin-4-ylamino)-4-(4-phenoxyphenylamino)pyrido[4,3-d]pyrimidin-5(6H)-one] | 11 to 100 | 

Continued, in another order:

Row | IC50 (Truncated human Axl; Table 1, read-out: Axl (IC50)) [nM] | Compound | also measured
15 | 101 to 1000 | CN1CCC(Nc2nc(Nc3ccc(OCc4ccccc4)cc3)c3c(=O)[nH]cc(Br)c3n2)CC1 [Compound 221, 4-((4-(benzyloxy)phenyl)amino)-8-bromo-2-((1-methylpiperidin-4-yl)amino)pyrido[4,3-d]pyrimidin-5(6H)-one] | 
16 | 101 to 1000 | CN1CCC(Nc2nc(Nc3ccc(OC4CCCC4)cc3)c3c(=O)[nH]cc(Br)c3n2)CC1 [Compound 223, 8-bromo-4-((4-(cyclopentyloxy)phenyl)amino)-2-((1-methylpiperidin-4-yl)amino)pyrido[4,3-d]pyrimidin-5(6H)-one] | IC50 (Truncated human Axl; [1]): 101 to 1000 nM; IC50 (JAK2): 101 to 1000 nM
17 | 101 to 1000 | CN1CCC(Nc2nc(Nc3ccc(OCC4CCCC4)cc3)c3c(=O)[nH]cc(Br)c3n2)CC1 [Compound 227, 8-bromo-4-((4-(cyclopentylmethoxy)phenyl)amino)-2-((1-methylpiperidin-4-yl)amino)pyrido[4,3-d]pyrimidin-5(6H)-one] | 
18 | 101 to 1000 | CN1CCC(Nc2nc(Nc3ccc(OC4CCCCC4)cc3)c3c(=O)[nH]cc(Br)c3n2)CC1 [Compound 228, 8-bromo-4-((4-(cyclohexyloxy)phenyl)amino)-2-((1-methylpiperidin-4-yl)amino)pyrido[4,3-d]pyrimidin-5(6H)-one] | IC50 (Truncated human Axl; [1]): 101 to 1000 nM; IC50 (JAK2): 101 to 1000 nM
19 | 11 to 100 | CC(C)c1ccc(Oc2ccc(Nc3nc(NC4CCN(C)CC4)nc4c(Br)c[nH]c(=O)c34)cc2)cc1 [Compound 230, 8-bromo-4-((4-(4-isopropylphenoxy)phenyl)amino)-2-((1-methylpiperidin-4-yl)amino)pyrido[4,3-d]pyrimidin-5(6H)-one] | 
20 | 11 to 100 | Cc1ccc(Oc2ccc(Nc3nc(NC4CCN(C)CC4)nc4c(Br)c[nH]c(=O)c34)cc2)cc1 [Compound 231, 8-bromo-2-((1-methylpiperidin-4-yl)amino)-4-((4-(p-tolyloxy)phenyl)amino)pyrido[4,3-d]pyrimidin-5(6H)-one hydrochloride] | 
21 | 101 to 1000 | CN1CCC(Nc2nc(Nc3ccc(OCC4CCCC4)cc3)c3c(=O)[nH]cc(Br)c3n2)CC1 [Compound 235, 8-bromo-4-((4-(cyclopentylmethoxy)phenyl)amino)-2-((1-methylpiperidin-4-yl)amino)pyrido[4,3-d]pyrimidin-5(6H)-one hydrochloride] | GI50 (MDA-MB-231 cells): 1100 to 3000 nM; GI50 (Hs578T cells): 1100 to 3000 nM
22 | 11 to 100 | CN1CCC(Nc2nc(Nc3ccc(Oc4cc(F)cc(F)c4)cc3)c3c(=O)[nH]cc(Br)c3n2)CC1 [Compound 243, 8-bromo-4-((4-(3,5-difluorophenoxy)phenyl)amino)-2-((1-methylpiperidin-4-yl)amino)pyrido[4,3-d]pyrimidin-5(6H)-one hydrochloride] | 
23 | 11 to 100 | Cc1cc(Nc2nc(NC3CCN(C)CC3)nc3c(Br)c[nH]c(=O)c23)ccc1Oc1ccccc1 [Compound 246, 8-bromo-4-((3-methyl-4-phenoxyphenyl)amino)-2-((1-methylpiperidin-4-yl)amino)pyrido[4,3-d]pyrimidin-5(6H)-one hydrochloride] | 
24 | 11 to 100 | CC(C)N1CCC(Nc2nc(Nc3ccc(Oc4ccccc4)cc3)c3c(=O)[nH]cc(Br)c3n2)CC1 [Compound 248, 8-bromo-2-(1-isopropylpiperidin-4-ylamino)-4-(4-phenoxyphenylamino)pyrido[4,3-d]pyrimidin-5(6H)-one] | 
25 | 101 to 1000 | O=c1[nH]cc(Br)c2nc(NC3CCN(CC(F)(F)F)CC3)nc(Nc3ccc(Oc4ccccc4)cc3)c12 [Compound 250, 8-bromo-4-(4-phenoxyphenylamino)-2-(1-(2,2,2-trifluoroethyl)piperidin-4-ylamino)pyrido[4,3-d]pyrimidin-5(6H)-one] | 
